ChEMBL document CHEMBL4177694, “Discovery of the first low-shift positive allosteric modulators for the muscarinic M1 receptor” (Bioorg Med Chem Lett, 2017)
Activity calls are given as the source filed them. The calls are words filed in the database; no cut-off is given here.

What was measured:
[1] = biological target: T1, Muscarinic acetylcholine receptor M1 (Homo sapiens) (UniProt P11229); assay: Positive allosteric modulation of human wild type M1 receptor assessed as increase in acetylcholine-induced calcium flux by FLIPR assay relative to acetylcholine; type: functional
T1 sequence (whole entry): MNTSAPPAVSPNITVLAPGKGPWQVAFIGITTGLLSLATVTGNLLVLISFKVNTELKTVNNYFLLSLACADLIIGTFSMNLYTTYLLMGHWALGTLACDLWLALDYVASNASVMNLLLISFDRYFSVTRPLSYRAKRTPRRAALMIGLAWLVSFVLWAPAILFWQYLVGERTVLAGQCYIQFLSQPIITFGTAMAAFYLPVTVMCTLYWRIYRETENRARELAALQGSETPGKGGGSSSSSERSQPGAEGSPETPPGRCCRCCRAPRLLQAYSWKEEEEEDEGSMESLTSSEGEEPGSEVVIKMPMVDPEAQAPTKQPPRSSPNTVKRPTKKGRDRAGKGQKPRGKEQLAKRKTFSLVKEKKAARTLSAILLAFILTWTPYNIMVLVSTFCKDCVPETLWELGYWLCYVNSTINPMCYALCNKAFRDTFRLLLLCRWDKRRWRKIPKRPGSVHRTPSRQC

[2] = biological target: T2, Muscarinic acetylcholine receptor M1 (Homo sapiens, UniProt P11229); assay: (§1) Positive allosteric modulation of human wild type M1 receptor assessed as increase in acetylcholine-induced calcium flux by FLIPR assay; type: functional
T2 sequence (P11229 whole entry): T1 sequence (whole entry)

[3] = Displacement of [3H]-Ro 15-1788 from rat brain synaptosomal membranes GABA receptor after 90 mins
[4] = biological target: T1, Muscarinic acetylcholine receptor M1 (Homo sapiens); assay: as §1; type: functional
[5] = Stability in mouse microsomes; type: ADME, Microsome
Cytochrome P450 3A4 = Cytochrome P450 3A4 (Homo sapiens, UniProt P08684); assay: Inhibition of CYP3A4 (unknown origin); type: ADME
[6] = Stability in human microsomes; type: ADME, Microsome
[7] = Drug metabolism in rat microsomes assessed as amide formation; type: ADME, Microsome
[8] = Activity at P-gp (unknown origin); type: ADME; settings: human
[9] = biological target: GABA-A receptor; alpha-1/beta-2/gamma-2 (Rattus norvegicus, UniProt P18508+P62813+P63138); assay: […] rat GABA-A receptor alpha1beta2gamma2 expressed in HEK293 cells by electrophysiology assay; type: cell-based
[10] = biological target: GABA-A receptor; alpha-3/beta-3/gamma-2 (Homo sapiens, UniProt P18507+P28472+P34903); assay: […] human GABA-A receptor alpha3beta3gamma2 expressed in HEK293 cells by electrophysiology assay; type: cell-based
[11] = biological target: GABA-A receptor; alpha-5/beta-3/gamma-2 (Homo sapiens, UniProt P18507+P28472+P31644); assay: […] human GABA-A receptor alpha5beta3gamma2 expressed in HEK293 cells by electrophysiology assay; type: cell-based
[12] = biological target: GABA A receptor alpha-5/beta-3/gamma-2 (Rattus norvegicus, UniProt P18508+P19969+P63079); assay: […] rat GABA-A receptor alpha5beta3gamma2 expressed in HEK293 cells by electrophysiology assay; type: cell-based
[13] = biological target: GABA-A receptor; alpha-2/beta-3/gamma-2 (Homo sapiens, UniProt P18507+P28472+P47869); assay: […] human GABA-A receptor alpha2beta3gamma2 expressed in HEK293 cells by electrophysiology assay; type: cell-based
[14] = biological target: GABA-A receptor; alpha-1/beta-2/gamma-2 (Homo sapiens, UniProt P14867+P18507+P47870); assay: […] human GABA-A receptor alpha1beta2gamma2 expressed in HEK293 cells by electrophysiology assay; type: cell-based
[15] = biological target: Gamma-aminobutyric acid receptor subunit alpha-2/beta-3/gamma-2 (Rattus norvegicus, UniProt P18508+P23576+P63079); assay: […] rat GABA-A receptor alpha2beta3gamma2 expressed in HEK293 cells by electrophysiology assay; type: cell-based
[16] = biological target: Gamma-aminobutyric acid receptor subunit alpha-3/beta-3/gamma-2 (Rattus norvegicus, UniProt P18508+P20236+P63079); assay: […] rat GABA-A receptor alpha3beta3gamma2 expressed in HEK293 cells by electrophysiology assay; type: cell-based

Sequence of GABA-A receptor; alpha-1/beta-2/gamma-2 (Homo sapiens, UniProt P14867+P18507+P47870) (P14867 whole entry): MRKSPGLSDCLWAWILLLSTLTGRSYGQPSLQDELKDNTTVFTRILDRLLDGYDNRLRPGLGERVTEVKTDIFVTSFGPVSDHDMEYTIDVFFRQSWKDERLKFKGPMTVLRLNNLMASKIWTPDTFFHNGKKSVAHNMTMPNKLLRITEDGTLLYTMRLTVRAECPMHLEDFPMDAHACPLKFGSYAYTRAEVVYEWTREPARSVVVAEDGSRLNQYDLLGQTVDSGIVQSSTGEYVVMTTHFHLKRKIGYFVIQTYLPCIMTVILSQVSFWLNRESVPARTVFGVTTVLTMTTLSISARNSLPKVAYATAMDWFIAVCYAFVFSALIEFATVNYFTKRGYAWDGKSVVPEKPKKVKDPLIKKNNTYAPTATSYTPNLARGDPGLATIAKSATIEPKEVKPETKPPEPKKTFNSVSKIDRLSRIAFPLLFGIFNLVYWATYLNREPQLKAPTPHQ
Sequence of GABA-A receptor; alpha-1/beta-2/gamma-2 (Homo sapiens, UniProt P14867+P18507+P47870) (P47870 whole entry): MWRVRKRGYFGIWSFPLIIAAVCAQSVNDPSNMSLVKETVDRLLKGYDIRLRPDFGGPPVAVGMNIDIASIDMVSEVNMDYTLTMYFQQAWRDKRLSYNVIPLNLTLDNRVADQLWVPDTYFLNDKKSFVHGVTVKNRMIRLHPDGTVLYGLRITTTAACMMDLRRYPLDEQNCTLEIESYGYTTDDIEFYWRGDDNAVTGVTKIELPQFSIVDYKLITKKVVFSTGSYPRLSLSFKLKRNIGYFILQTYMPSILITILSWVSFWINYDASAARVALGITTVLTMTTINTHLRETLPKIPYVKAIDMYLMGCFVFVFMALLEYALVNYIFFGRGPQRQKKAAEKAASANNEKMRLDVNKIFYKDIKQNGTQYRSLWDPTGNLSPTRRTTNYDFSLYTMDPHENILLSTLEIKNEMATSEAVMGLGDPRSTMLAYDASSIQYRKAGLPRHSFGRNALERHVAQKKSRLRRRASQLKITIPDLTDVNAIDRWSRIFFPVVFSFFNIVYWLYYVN
Sequence of GABA-A receptor; alpha-1/beta-2/gamma-2 (Homo sapiens, UniProt P14867+P18507+P47870) (P18507 whole entry): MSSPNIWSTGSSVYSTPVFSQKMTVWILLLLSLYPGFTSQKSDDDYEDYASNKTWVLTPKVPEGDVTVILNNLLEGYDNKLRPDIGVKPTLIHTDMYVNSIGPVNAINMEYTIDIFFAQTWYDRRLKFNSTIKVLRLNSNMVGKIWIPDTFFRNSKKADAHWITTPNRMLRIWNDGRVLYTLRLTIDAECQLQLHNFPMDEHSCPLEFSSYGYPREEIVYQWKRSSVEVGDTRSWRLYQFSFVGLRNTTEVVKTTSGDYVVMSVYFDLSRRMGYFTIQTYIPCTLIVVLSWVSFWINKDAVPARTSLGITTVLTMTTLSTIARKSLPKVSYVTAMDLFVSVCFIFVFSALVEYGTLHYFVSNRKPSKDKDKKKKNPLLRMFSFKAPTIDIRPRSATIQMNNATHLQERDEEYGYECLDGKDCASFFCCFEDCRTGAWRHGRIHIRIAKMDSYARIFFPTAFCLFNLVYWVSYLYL
Sequence of Cytochrome P450 3A4 (P08684 whole entry): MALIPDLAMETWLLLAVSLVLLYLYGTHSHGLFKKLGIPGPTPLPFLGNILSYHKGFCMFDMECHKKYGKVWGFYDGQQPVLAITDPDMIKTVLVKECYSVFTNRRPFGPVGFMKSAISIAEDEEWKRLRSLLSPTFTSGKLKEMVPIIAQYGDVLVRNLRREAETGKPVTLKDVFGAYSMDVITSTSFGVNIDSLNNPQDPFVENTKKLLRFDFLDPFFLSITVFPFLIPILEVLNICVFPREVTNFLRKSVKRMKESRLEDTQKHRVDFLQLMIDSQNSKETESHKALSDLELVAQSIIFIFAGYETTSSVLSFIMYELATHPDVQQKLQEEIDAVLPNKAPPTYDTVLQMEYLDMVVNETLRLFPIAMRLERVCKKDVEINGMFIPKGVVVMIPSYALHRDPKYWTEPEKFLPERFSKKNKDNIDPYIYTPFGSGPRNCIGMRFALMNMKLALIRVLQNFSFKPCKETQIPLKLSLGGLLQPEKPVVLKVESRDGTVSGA
Sequence of GABA-A receptor; alpha-3/beta-3/gamma-2 (P18507 whole entry): as the sequence (P18507 whole entry) above
Sequence of GABA-A receptor; alpha-3/beta-3/gamma-2 (P28472 whole entry): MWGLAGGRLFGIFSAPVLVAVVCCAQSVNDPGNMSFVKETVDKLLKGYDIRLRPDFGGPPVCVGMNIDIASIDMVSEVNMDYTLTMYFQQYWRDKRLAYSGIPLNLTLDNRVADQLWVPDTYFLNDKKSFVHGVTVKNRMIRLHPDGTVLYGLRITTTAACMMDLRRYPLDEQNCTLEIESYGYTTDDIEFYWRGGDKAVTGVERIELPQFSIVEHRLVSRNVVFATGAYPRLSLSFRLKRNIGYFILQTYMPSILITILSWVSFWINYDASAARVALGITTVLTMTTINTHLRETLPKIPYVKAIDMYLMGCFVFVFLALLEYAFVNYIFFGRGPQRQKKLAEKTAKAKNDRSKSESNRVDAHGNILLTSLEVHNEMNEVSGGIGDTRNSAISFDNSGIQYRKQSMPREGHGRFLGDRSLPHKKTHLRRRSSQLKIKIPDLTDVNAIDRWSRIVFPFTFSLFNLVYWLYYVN
Sequence of GABA-A receptor; alpha-3/beta-3/gamma-2 (P34903 whole entry): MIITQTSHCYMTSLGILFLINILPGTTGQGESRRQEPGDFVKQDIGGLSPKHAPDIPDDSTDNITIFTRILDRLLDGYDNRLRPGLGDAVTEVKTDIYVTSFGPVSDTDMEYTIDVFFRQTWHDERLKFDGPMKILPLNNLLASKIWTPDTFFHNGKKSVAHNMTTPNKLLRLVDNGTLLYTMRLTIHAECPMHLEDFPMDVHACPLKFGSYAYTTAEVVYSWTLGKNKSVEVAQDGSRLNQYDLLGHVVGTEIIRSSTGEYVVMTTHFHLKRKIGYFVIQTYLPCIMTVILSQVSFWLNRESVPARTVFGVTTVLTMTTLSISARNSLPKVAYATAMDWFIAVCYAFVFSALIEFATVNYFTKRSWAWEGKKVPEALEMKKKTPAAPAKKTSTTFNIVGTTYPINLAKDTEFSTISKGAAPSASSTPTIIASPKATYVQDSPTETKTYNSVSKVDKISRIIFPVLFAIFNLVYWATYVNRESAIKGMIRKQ
Sequence of GABA-A receptor; alpha-5/beta-3/gamma-2 (P18507 whole entry): as the sequence (P18507 whole entry) above
Sequence of GABA-A receptor; alpha-5/beta-3/gamma-2 (P28472 whole entry): as the sequence (P28472 whole entry) above
Sequence of GABA-A receptor; alpha-5/beta-3/gamma-2 (P31644 whole entry): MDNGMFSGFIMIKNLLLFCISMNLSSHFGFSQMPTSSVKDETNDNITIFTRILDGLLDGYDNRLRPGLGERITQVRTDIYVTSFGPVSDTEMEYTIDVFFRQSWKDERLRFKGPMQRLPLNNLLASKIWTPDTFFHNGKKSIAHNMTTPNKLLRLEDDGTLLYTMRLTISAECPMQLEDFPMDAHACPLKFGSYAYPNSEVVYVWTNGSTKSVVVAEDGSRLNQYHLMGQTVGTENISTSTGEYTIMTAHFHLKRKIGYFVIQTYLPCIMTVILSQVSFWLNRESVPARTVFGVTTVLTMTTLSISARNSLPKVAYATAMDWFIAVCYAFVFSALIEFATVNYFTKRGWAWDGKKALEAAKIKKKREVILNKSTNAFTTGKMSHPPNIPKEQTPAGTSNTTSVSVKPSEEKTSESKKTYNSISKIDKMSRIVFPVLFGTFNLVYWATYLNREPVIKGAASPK
Sequence of GABA-A receptor; alpha-2/beta-3/gamma-2 (P18507 whole entry): as the sequence (P18507 whole entry) above
Sequence of GABA-A receptor; alpha-2/beta-3/gamma-2 (P28472 whole entry): as the sequence (P28472 whole entry) above
Sequence of GABA-A receptor; alpha-2/beta-3/gamma-2 (P47869 whole entry): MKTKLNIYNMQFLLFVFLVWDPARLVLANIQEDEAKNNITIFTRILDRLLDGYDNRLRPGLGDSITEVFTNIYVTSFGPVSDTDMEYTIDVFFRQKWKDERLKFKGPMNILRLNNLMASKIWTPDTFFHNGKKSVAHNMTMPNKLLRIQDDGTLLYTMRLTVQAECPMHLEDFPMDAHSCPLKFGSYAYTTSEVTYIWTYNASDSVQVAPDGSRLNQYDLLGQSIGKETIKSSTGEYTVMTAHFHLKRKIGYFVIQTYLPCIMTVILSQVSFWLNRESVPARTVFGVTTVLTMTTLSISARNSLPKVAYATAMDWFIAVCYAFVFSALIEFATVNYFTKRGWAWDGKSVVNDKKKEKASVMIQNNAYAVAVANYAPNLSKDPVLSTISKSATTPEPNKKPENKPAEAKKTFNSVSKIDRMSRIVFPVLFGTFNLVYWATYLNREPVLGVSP

CC(C)[C@H]1N=C(c2ccccc2F)c2cc(Cl)ccc2NC1=S
Emax [1]: 119% | EC50 [2]: 420 nM

CC(C)C1C(=O)N(c2ccccc2)c2cc(Cl)ccc2NC1=S (stereo not given)
Emax [1]: 93% | EC50 [2]: 267 nM

CC(C)[C@@H]1N=C(N2CCCCC2)c2cc(Cl)ccc2NC1=S
EC50 [2]: > 10000 nM

CC(C)[C@@H]1N=C(c2ccccc2)c2cc(-c3ccccc3)ccc2NC1=S
Emax [1]: 108% | EC50 [2]: 1470 nM

Fc1ccccc1C1=NCC(=S)Nc2ccccc21
EC50 [2]: > 10000 nM

CCC1N=C(c2ccccc2)c2cc(N)ccc2NC1=S (stereo not given)
EC50 [2]: > 10000 nM

Fc1ccccc1C1=N[C@@H](c2ccccc2)C(=S)Nc2ccc(Cl)cc21
Emax [1]: 75% | EC50 [2]: 1470 nM

C[C@@H]1N=C(c2ccccc2)c2cc(Cl)ccc2NC1=S
Emax [1]: 67% | EC50 [2]: 103 nM

C[C@@H]1N=C(c2ccccc2)c2ccccc2NC1=S
EC50 [3]: 68000 nM

Fc1ccccc1C1=NCC(=S)Nc2ccc(I)cc21
Emax [1]: 63% | EC50 [2]: 2150 nM

CC(C)[C@@H]1N=C(c2ccccc2)c2ccc(Cl)cc2NC1=S
Emax [1]: 117% | EC50 [2]: 399 nM

S=C1Nc2ccc(Cl)cc2C(c2ccccc2)=NC1n1ccnc1 (racemic)
EC50 [2]: > 10000 nM

CC[C@@H]1N=C(c2ccccc2)c2cc(Cl)ccc2NC1=S
Emax [1]: 66% | EC50 [2]: 187 nM

Fc1ccccc1C1=CCC(=S)Nc2ccc(Cl)cc21
Emax [1]: 95% | EC50 [2]: 317 nM

CC(C)C[C@@H]1N=C(c2ccccc2)c2cc(Cl)ccc2NC1=S
Emax [1]: 107% | EC50 [2]: 317 nM

CC(C)[C@@H]1N=C(c2ccc(C(F)(F)F)cc2)c2cc(Cl)ccc2NC1=S
EC50 [2]: > 10000 nM

COC(C)C1N=C(c2ccccc2)c2cc(Cl)ccc2NC1=S (racemic)
Emax [1]: 98% | EC50 [2]: 354 nM

CCC[C@@]1(C)N=C(c2ccccc2)c2cc(Cl)ccc2NC1=S
EC50 [2]: > 10000 nM

CC(=O)c1ccc2c(c1)C(c1ccccc1)=NC(C)C(=S)N2 (stereo not given)
EC50 [2]: > 10000 nM

CCOC1N=C(c2ccccc2)c2cc(Cl)ccc2NC1=S (racemic)
EC50 [2]: > 10000 nM

Fc1ccccc1C1=NCc2cnnn2-c2ccc(Cl)cc21
Activity [4]: inactive

O=[N+]([O-])c1ccc2c(c1)C(c1ccccc1)=NCC(=S)N2
Emax [1]: 40% | EC50 [2]: 4480 nM

S=C1CC(c2ccccc2)=Nc2cc(Cl)ccc2N1
EC50 [2]: > 10000 nM

COc1ccc2c(c1)C(c1ccccc1)=N[C@@H](C(C)C)C(=S)N2
Emax [1]: 105% | EC50 [2]: 559 nM

S=C1COC(c2ccccc2)c2cc(Cl)ccc2N1 (stereo not given)
EC50 [2]: > 10000 nM

CC(C)[C@@H]1N=C(c2ccccc2)c2cc(Cl)ccc2N=C1N
Activity [4]: inactive

CC(C)[C@@H]1N=C(c2ccccc2)c2cc(C(F)(F)F)ccc2NC1=S
Stability [5]: Stable | inhibition (INH) (Cytochrome P450 3A4): Not Active | Emax [1]: 72% | Stability [6]: Stable | EC50 [2]: 71 nM | Drug metabolism [7]: Metabolite_Detected | Activity [8]: Not Active

CC1N=C(c2ccccc2)c2cc(C#N)ccc2NC1=S (stereo not given)
Emax [1]: 47% | EC50 [2]: > 10000 nM

Fc1ccccc1C1=N[C@H](c2ccccc2)C(=S)Nc2ccc(Cl)cc21
EC50 [2]: > 10000 nM

S=C1Cc2ccccc2-c2cc(Cl)ccc2N1
EC50 [2]: > 10000 nM

CN1C(=S)CN=C(c2ccccc2)c2cc(Cl)ccc21 [SULAZEPAM]
EC50 [2]: > 10000 nM

S=C1CN=C(c2ccccc2)c2cc(Br)ccc2N1
Emax [1]: 92% | EC50 [2]: 962 nM

CC(C)C1C(=S)Nc2ccc(Cl)cc2C(c2ccccc2)=[N+]1[O-] (stereo not given)
Emax [1]: 112% | EC50 [2]: 349 nM

CC(C)[C@@H]1N=C(c2ccccc2)c2cc(Cl)ccc2NC1=S
EC50 [9]: > 24000 nM | Emax [1]: 102% | EC50 [2]: 70 nM | EC50 [10]: > 24000 nM | EC50 [11]: > 24000 nM | EC50 [12]: > 24000 nM | EC50 [13]: > 24000 nM | EC50 [14]: > 24000 nM | EC50 [15]: > 24000 nM | EC50 [16]: > 24000 nM

CCCC1=N[C@@H](C(C)C)C(=S)Nc2ccc(Cl)cc21
EC50 [2]: > 10000 nM

Fc1ccccc1C1=N[C@@H](C2CC2)C(=S)Nc2ccc(Cl)cc21
Emax [1]: 79% | EC50 [2]: 165 nM

CCC[C@]1(C)N=C(c2ccccc2)c2cc(Cl)ccc2NC1=S
EC50 [2]: 104 nM

CC(=O)OC1C=C(c2ccccc2F)c2cc(Cl)ccc2NC1=S (stereo not given)
Emax [1]: 92% | EC50 [2]: 649 nM

Fc1ccccc1C1=NCC(=S)Nc2ccc(Cl)cc21
Emax [1]: 95% | EC50 [2]: 317 nM

CC(C)[C@@H]1N=C(c2cccnc2)c2cc(Cl)ccc2NC1=S
Emax [1]: 112% | EC50 [2]: 275 nM

CC(C)[C@H]1N=C(c2ccccc2)c2cc(Cl)ccc2NC1=S
Emax [1]: 86% | EC50 [3]: 267000 nM | EC50 [2]: 521 nM

CC(C)[C@@H]1N=C(c2ccccc2)c2cc(OC(F)(F)F)ccc2NC1=S
Emax [1]: 127% | EC50 [2]: 232 nM

CC(C)[C@@H]1N=C(c2ccccc2)c2cc(Cl)ccc2N(C)C1=S
EC50 [3]: 73000 nM | EC50 [2]: > 10000 nM

FC(F)(F)C[C@@H]1N=C(c2ccccc2)c2cc(Cl)ccc2NC1=S
Emax [1]: 74% | EC50 [2]: 311 nM

CC(C)C[C@@H]1N=C(c2ccccc2Cl)c2cc(Cl)ccc2NC1=S
EC50 [2]: > 10000 nM

CNC1=Nc2ccc(Cl)cc2C(c2ccccc2)=N[C@H]1C(C)C
Activity [4]: inactive

CC1N=C(c2ccccc2)c2ccccc2NC1=S (racemic)
Emax [1]: 88% | EC50 [3]: 61 nM | EC50 [2]: 552 nM

CCC1CN(c2ccccc2)c2cc(Cl)ccc2NC1=S (stereo not given)
Emax [1]: 76% | EC50 [2]: 50 nM

CC(C)[C@@H]1N=C(c2ccccn2)c2cc(Cl)ccc2NC1=S
Emax [1]: 103% | EC50 [2]: 289 nM

CC(C)[C@@H]1N=C(C2CCCCC2)c2cc(Cl)ccc2NC1=S
Emax [1]: 75% | EC50 [2]: 414 nM

FC(F)(F)c1ccc2c(c1)C(c1ccccc1)=NCC(=S)N2
Emax [1]: 92% | EC50 [2]: 516 nM

Cc1ccc2c(c1)C(c1ccccc1)=NCC(=S)N2
Emax [1]: 91% | EC50 [2]: 3680 nM

CCC[C@@H]1N=C(c2ccccc2)c2cc(Cl)ccc2NC1=S
Emax [1]: 129% | EC50 [2]: 238 nM

SC1=Nc2ccc(Cl)cc2C(c2ccccc2)=NC1
Emax [1]: 82 to 92% | EC50 [2]: 180 to 857 nM

CC(C)(O)C1N=C(c2ccccc2)c2cc(Cl)ccc2NC1=S (racemic)
Emax [1]: 113% | EC50 [2]: 1850 nM

CCOC(=O)C1N=C(c2ccccc2)c2cc(Cl)ccc2NC1=S (racemic)
EC50 [2]: > 10000 nM

CSC1=Nc2ccc(Cl)cc2C(c2ccccc2)=N[C@H]1C(C)C
Activity [4]: inactive

CC(C)=C1N=C(c2ccccc2)c2cc(Cl)ccc2NC1=S
EC50 [2]: > 10000 nM

S=C1Nc2ccc(Cl)cc2C(c2ccccc2)=N[C@H]1CC1CC1
Emax [1]: 108% | EC50 [2]: 251 nM

Cc1ccc2c(c1)C(c1ccccc1)=NC(C(C)C)C(=S)N2 (stereo not given)
Emax [1]: 129% | EC50 [2]: 62 nM

CSc1ccc2c(c1)C(c1ccccc1)=NCC(=S)N2
Emax [1]: 71% | EC50 [2]: 870 nM

S=C1CN=C(c2ccccc2)c2ccccc2N1
EC50 [2]: > 10000 nM

CC(C)[C@@H]1N=C(c2cccc(Cl)c2)c2cc(Cl)ccc2NC1=S
Emax [1]: 112% | EC50 [2]: 172 nM

CC(C)[C@@H]1N=C(c2ccccc2)c2cc(Cl)ccc2NC1=O
Emax [1]: 90% | EC50 [3]: 57000 nM | EC50 [2]: 777 nM
